Read-outs that look alike come from different tables or passages of the source.
System: CXCR4 dependent pseudotyped virus (NL4-3)
Test: Single cycle HIV infection assay, pseudotyped luciferase reporter virus, time of addition
Conditions: for inhibition of pseudotyped virus expression: all time points of addition, 0.2 μM; for activity at 0.2 µM: read-out: viral infection level, % of control levels

SMILES | inhibition of pseudotyped virus expression | inhibition of pseudotyped virus expression (listed as protease inhibitor) | activity at 0.2 µM (Human immunodeficiency virus 1, NL43, 10 h) [%] | activity at 0.2 µM (Human immunodeficiency virus 1, NL43, 14 h) [%] | time post virus exposure within which addition suppresses pseudotyped virus replication (time of addition, DP178 20 μg/ml, mAb#19 20 μg/ml, nevirapine 0.2 μM, Tat inhibitor 50 μM)
Cc1c(O)cccc1C(=O)N[C@@H](CSc1ccccc1)[C@H](O)CN1C[C@H]2CCCC[C@H]2C[C@H]1C(=O)NC(C)(C)C [nelfinavir] | ineffectual | does not, therefore, inhibit | – | – | –
Cc1ccnc2c1NC(=O)c1cccnc1N2C1CC1 [nevirapine] | – | – | 67 | 85 | approximately 10 hours

From patent US7037645B2, “Methods for identification of CDS8+ suppressor molecules” (priority 2000, dated 2006)
